Test systems include SARS-CoV-2 α (B.1.1.7); SARS-CoV-2 μ (B.1.621); SARS-CoV-2 δ (B.1.617.2); SARS-CoV-2 β (B.1.351); SARS-CoV-2 ο (B.1.1.529).
What all share (assay): microbe, parasite or virus in culture
Common to all, as to format: cell-based
Common to all, as to conditions: Severe acute respiratory syndrome coronavirus 2, HeLa-ACE2, 48 h

For 1 compound, IC50 and IC90 results are on record in paper PMC8761492 (Life Science Alliance, 2022).

Starred links: 1 amine or outer side, 2 acyl side, 3 side chain; linkers in the order of their positions; H or OH if unused. Positions of bridges follow the written chain, without caps; N, C: chain ends. Non-standard residues stand in square brackets, D forms with d. Residues, ends and D or L forms follow the SMILES beside them. *: point of attachment. X1 = CC[C@H](C)[C@@H](N[*:1])[C@@H](O)CC(=O)O[C@H](C(=O)[C@H](C)C(=O)[*:2])C(C)C; NMeY = CN[C@@H](Cc1ccc(O)cc1)C(=O)O; dNMeL = CN[C@H](CC(C)C)C(=O)O; Pyruvoyl = CC(=O)C(=O)*

As a reminder, the IC50 is the point on the concentration scale where inhibition reaches its midpoint. As usually defined, the IC90 is the point of the concentration-response curve where the effect stands at 90%. For `CC[C@H](C)[C@H]1NC(=O)[C@@H](NC(=O)[C@@H](CC(C)C)N(C)C(=O)[C@@H]2CCCN2C(=O)C(C)=O)[C@@H](C)OC(=O)[C@H](Cc2ccc(OC)cc2)N(C)C(=O)[C@@H]2CCCN2C(=O)[C@H](CC(C)C)NC(=O)[C@@H](C)C(=O)[C@H](C(C)C)OC(=O)C[C@@H]1O` [Plitidepsin] (Pyruvoyl-P[dNMeL]T[X1]LP[NMeY](Me); ester 3-C), the IC50 in the assay on SARS-CoV-2 α (B.1.1.7) (read-out: Antiviral IC50) is 0.052 nM; in the assay with SARS-CoV-2 μ (B.1.621) (read-out: Antiviral IC50), 0.266 nM; with SARS-CoV-2 δ (B.1.617.2) (read-out: Antiviral IC50), 0.089 nM; with SARS-CoV-2 β (B.1.351) (read-out: Antiviral IC50) it was 0.077 nM; in the assay on SARS-CoV-2 ο (B.1.1.529) (read-out: Antiviral IC50), 0.291 nM. For the same compound, the IC90 is 0.161 nM in the assay with SARS-CoV-2 α (B.1.1.7) (read-out: Antiviral IC90); 1.03 nM in the assay on SARS-CoV-2 μ (B.1.621) (read-out: Antiviral IC90); 0.511 nM in the assay on SARS-CoV-2 δ (B.1.617.2) (read-out: Antiviral IC90); 0.419 nM in the assay on SARS-CoV-2 β (B.1.351) (read-out: Antiviral IC90); 0.887 nM in the assay on SARS-CoV-2 ο (B.1.1.529) (read-out: Antiviral IC90).
